Tested on: OsACCase gene
Assay: Base editing (pZRH-PBE + individual sgRNAs) of OsACCase functional domain in transgenic M0 rice plants
Type: in vivo
Settings: for Frequency of indel (%) / Frequency of substitution (%) / No. of WT / No. of indel / No. of substitution: transgenic M0 plants; for No. of WT / No. of indel / No. of substitution: per sgRNA target
Excerpt: For individual cloning, the following method is used. APOBEC1, partial nCas9 and UGI sequences (SEQ ID NO: 129) without BsaI were synthesized commercially (GenScript, Nanjing, China) and cloned into the pUC57 (SEQ ID NO: 130) as intermediate vector. […] The full length APOBEC1-nCas9-UGI was excised using XmaJI and SacI, then was subcloned into pHUE411 that had been digested using the same two enzymes. The resultant vector pZRH-PBE (SEQ ID NO: 133) was used to construct sgRNA expression plasmids using restriction enzyme site BsaI.

[1] = edited allele with the substitution of the same table line

| Substance | No. of alleles [1] | Frequency of indel (%) | Frequency of substitution (%) | No. of WT | No. of indel | No. of substitution | No. of alleles (unedited target site sequence) | No. of alleles (edited allele with the substitution of the same table line, edited allele (SEQ ID NO: 120)) | No. of alleles (edited allele with the substitution of the same table line, edited allele (SEQ ID NO: 121)) |
| --- | --- | --- | --- | --- | --- | --- | --- | --- | --- |
| R35: sgRNA in pZRH-PBE; OsACCase target site CCAAGGGAAATGGTTAGGTGCTA (SEQ ID NO: 113) (guide CCAAGGGAAATGGTTAGGTGGTA; sgRNA expressed from vector pZRH-PBE, further chemistry not given here; the letters are possibly those of the target site) | 2 | 0.0% | 12.5% | 7 | 0 | 1 | 0 |  |  |
| R5: sgRNA in pZRH-PBE; OsACCase target site CCACATGCAGTTGGGTGGTCCCA (SEQ ID NO: 15) (expressed or natural sequence; target site or template, no part of the molecule) |  | 0.0% | 65.4% | 18 | 0 | 34 | 12 |  |  |
| R37: sgRNA in pZRH-PBE; OsACCase target site CCTGAGAACTCGTGTGATCCTCG (SEQ ID NO: 119) (expressed or natural sequence; target site or template, no part of the molecule) |  | 45.5% | 18.2% | 4 | 5 | 2 | 1 | 1 | 2 |
| R31: sgRNA in pZRH-PBE; OsACCase target site GACTGCAAAAGGCAATGTTCTGG (SEQ ID NO: 102) (expressed or natural sequence; target site or template, no part of the molecule) | 1 | 0.0% | 5.9% | 16 | 0 | 1 | 1 |  |  |
| R22: sgRNA in pZRH-PBE; OsACCase target site ACTGTTTCAGATGACCTTGAAGG (SEQ ID NO: 79) (expressed or natural sequence; the letters are possibly those of the target site) | 4 | 0.0% | 18.8% | 13 | 0 | 3 | 2 |  |  |
| R2: sgRNA in pZRH-PBE; OsACCase target site CCGGTGCATACAGCGTCTTGACC (SEQ ID NO: 8) (expressed or natural sequence; target site or template, no part of the molecule) |  | 0% | 80% | 5 | 0 | 20 | 6 |  |  |
| R17: sgRNA in pZRH-PBE; OsACCase target site GGAGCTTATCTTGCTCGACTTGG (SEQ ID NO: 64) (expressed or natural sequence; target site or template, no part of the molecule) |  | 4.8% | 42.9% | 22 | 2 | 18 | 16 |  |  |
| R40: sgRNA in pZRH-PBE; OsACCase target site CCTATTATTCTTACAGGCTATTC (SEQ ID NO: 127) (chemistry not fully specified; the letters are possibly those of the target site) | 1 | 6.7% | 13.3% | 12 | 1 | 2 | 1 |  |  |
